Measured values from the NIST ThermoML archive (doi:10.1016/j.jct.2015.01.004).
Several values for one entry are separate records, joined by “and”; a condition that tells them apart may be missing. Identical values can stand only once.

Experiment: molar heat capacity at constant pressure; xn = mol fraction of the nth substance listed
Conditions: 100 kPa

[Si] [silicon] + [Li]
Conditions	molar heat capacity at constant pressure
298.15 K, Crystal of intercomponent compound 2, relaxation calorimetry + DSC, x2 = 0.804	22.75 J/K/mol
298.32 K, Crystal of intercomponent compound 1, relaxation calorimetry, x2 = 0.81	21.66 J/K/mol
298.33 K, Crystal of intercomponent compound 2, relaxation calorimeter, x2 = 0.804	22.58 J/K/mol
300 K, Crystal of intercomponent compound 1, relaxation calorimetry + DSC, x2 = 0.81	22.58 J/K/mol
300 K, Crystal of intercomponent compound 2, relaxation calorimetry + DSC, x2 = 0.804	22.79 J/K/mol
302.31 K, Crystal of intercomponent compound 1, relaxation calorimetry, x2 = 0.81	21.75 J/K/mol
302.34 K, Crystal of intercomponent compound 2, relaxation calorimeter, x2 = 0.804	22.69 J/K/mol
304.67 K, Crystal of intercomponent compound 2, Small sample (50 mg) DSC, x2 = 0.804	23.11 J/K/mol and 23.16 J/K/mol
304.7 K, Crystal of intercomponent compound 1, Small sample (50 mg) DSC, x2 = 0.81	22.87 J/K/mol and 22.84 J/K/mol
304.7 K, Crystal of intercomponent compound 2, Small sample (50 mg) DSC, x2 = 0.804	23.05 J/K/mol
304.87 K, Crystal of intercomponent compound 1, Small sample (50 mg) DSC, x2 = 0.81	22.81 J/K/mol
304.88 K, Crystal of intercomponent compound 1, Small sample (50 mg) DSC, x2 = 0.81	22.77 J/K/mol
314.59 K, Crystal of intercomponent compound 2, Small sample (50 mg) DSC, x2 = 0.804	23.41 J/K/mol and 23.55 J/K/mol
314.61 K, Crystal of intercomponent compound 1, Small sample (50 mg) DSC, x2 = 0.81	23.01 J/K/mol and 23.1 J/K/mol
314.61 K, Crystal of intercomponent compound 2, Small sample (50 mg) DSC, x2 = 0.804	23.42 J/K/mol
314.8 K, Crystal of intercomponent compound 1, Small sample (50 mg) DSC, x2 = 0.81	22.99 J/K/mol
314.81 K, Crystal of intercomponent compound 1, Small sample (50 mg) DSC, x2 = 0.81	22.91 J/K/mol
320 K, Crystal of intercomponent compound 1, relaxation calorimetry + DSC, x2 = 0.81	23.07 J/K/mol
320 K, Crystal of intercomponent compound 2, relaxation calorimetry + DSC, x2 = 0.804	23.22 J/K/mol
324.51 K, Crystal of intercomponent compound 2, Small sample (50 mg) DSC, x2 = 0.804	23.8 J/K/mol and 23.85 J/K/mol
324.52 K, Crystal of intercomponent compound 1, Small sample (50 mg) DSC, x2 = 0.81	23.19 J/K/mol and 23.22 J/K/mol
324.52 K, Crystal of intercomponent compound 2, Small sample (50 mg) DSC, x2 = 0.804	23.8 J/K/mol
324.71 K, Crystal of intercomponent compound 1, Small sample (50 mg) DSC, x2 = 0.81	23.19 J/K/mol
324.72 K, Crystal of intercomponent compound 1, Small sample (50 mg) DSC, x2 = 0.81	23.11 J/K/mol
334.42 K, Crystal of intercomponent compound 2, Small sample (50 mg) DSC, x2 = 0.804	24.09 J/K/mol and 24.14 J/K/mol
334.43 K, Crystal of intercomponent compound 2, Small sample (50 mg) DSC, x2 = 0.804	24.12 J/K/mol
334.44 K, Crystal of intercomponent compound 1, Small sample (50 mg) DSC, x2 = 0.81	23.32 J/K/mol and 23.34 J/K/mol
334.63 K, Crystal of intercomponent compound 1, Small sample (50 mg) DSC, x2 = 0.81	23.4 J/K/mol
334.64 K, Crystal of intercomponent compound 1, Small sample (50 mg) DSC, x2 = 0.81	23.38 J/K/mol
340 K, Crystal of intercomponent compound 1, relaxation calorimetry + DSC, x2 = 0.81	23.51 J/K/mol
340 K, Crystal of intercomponent compound 2, relaxation calorimetry + DSC, x2 = 0.804	23.65 J/K/mol
344.33 K, Crystal of intercomponent compound 2, Small sample (50 mg) DSC, x2 = 0.804	24.3 J/K/mol and 24.38 J/K/mol
344.35 K, Crystal of intercomponent compound 1, Small sample (50 mg) DSC, x2 = 0.81	23.65 J/K/mol and 23.63 J/K/mol
344.35 K, Crystal of intercomponent compound 2, Small sample (50 mg) DSC, x2 = 0.804	24.37 J/K/mol
344.54 K, Crystal of intercomponent compound 1, Small sample (50 mg) DSC, x2 = 0.81	23.6 J/K/mol
344.55 K, Crystal of intercomponent compound 1, Small sample (50 mg) DSC, x2 = 0.81	23.53 J/K/mol
354.24 K, Crystal of intercomponent compound 2, Small sample (50 mg) DSC, x2 = 0.804	24.56 J/K/mol and 24.6 J/K/mol
354.26 K, Crystal of intercomponent compound 1, Small sample (50 mg) DSC, x2 = 0.81	23.98 J/K/mol and 23.97 J/K/mol
354.26 K, Crystal of intercomponent compound 2, Small sample (50 mg) DSC, x2 = 0.804	24.57 J/K/mol
354.45 K, Crystal of intercomponent compound 1, Small sample (50 mg) DSC, x2 = 0.81	23.8 J/K/mol
354.46 K, Crystal of intercomponent compound 1, Small sample (50 mg) DSC, x2 = 0.81	23.72 J/K/mol
360 K, Crystal of intercomponent compound 1, relaxation calorimetry + DSC, x2 = 0.81	23.91 J/K/mol
360 K, Crystal of intercomponent compound 2, relaxation calorimetry + DSC, x2 = 0.804	24.08 J/K/mol
364.16 K, Crystal of intercomponent compound 2, Small sample (50 mg) DSC, x2 = 0.804	24.81 J/K/mol and 24.83 J/K/mol
364.17 K, Crystal of intercomponent compound 1, Small sample (50 mg) DSC, x2 = 0.81	24.15 J/K/mol and 24.13 J/K/mol
364.17 K, Crystal of intercomponent compound 2, Small sample (50 mg) DSC, x2 = 0.804	24.69 J/K/mol
364.36 K, Crystal of intercomponent compound 1, Small sample (50 mg) DSC, x2 = 0.81	24.02 J/K/mol
364.37 K, Crystal of intercomponent compound 1, Small sample (50 mg) DSC, x2 = 0.81	23.91 J/K/mol
374.07 K, Crystal of intercomponent compound 2, Small sample (50 mg) DSC, x2 = 0.804	24.83 J/K/mol and 24.87 J/K/mol and 24.94 J/K/mol
374.08 K, Crystal of intercomponent compound 1, Small sample (50 mg) DSC, x2 = 0.81	24.33 J/K/mol and 24.27 J/K/mol
374.28 K, Crystal of intercomponent compound 1, Small sample (50 mg) DSC, x2 = 0.81	24.24 J/K/mol and 24.13 J/K/mol
380 K, Crystal of intercomponent compound 1, relaxation calorimetry + DSC, x2 = 0.81	24.29 J/K/mol
380 K, Crystal of intercomponent compound 2, relaxation calorimetry + DSC, x2 = 0.804	24.51 J/K/mol
383.99 K, Crystal of intercomponent compound 2, Small sample (50 mg) DSC, x2 = 0.804	25.05 J/K/mol
384.19 K, Crystal of intercomponent compound 1, Small sample (50 mg) DSC, x2 = 0.81	24.35 J/K/mol
384.2 K, Crystal of intercomponent compound 1, Small sample (50 mg) DSC, x2 = 0.81	24.46 J/K/mol
393.9 K, Crystal of intercomponent compound 2, Small sample (50 mg) DSC, x2 = 0.804	25.16 J/K/mol and 25.27 J/K/mol
394.11 K, Crystal of intercomponent compound 1, Small sample (50 mg) DSC, x2 = 0.81	24.46 J/K/mol
394.12 K, Crystal of intercomponent compound 1, Small sample (50 mg) DSC, x2 = 0.81	24.68 J/K/mol
400 K, Crystal of intercomponent compound 1, relaxation calorimetry + DSC, x2 = 0.81	24.63 J/K/mol
400 K, Crystal of intercomponent compound 2, relaxation calorimetry + DSC, x2 = 0.804	24.94 J/K/mol
403.81 K, Crystal of intercomponent compound 2, Small sample (50 mg) DSC, x2 = 0.804	25.3 J/K/mol and 25.35 J/K/mol
404.02 K, Crystal of intercomponent compound 1, Small sample (50 mg) DSC, x2 = 0.81	24.57 J/K/mol
404.03 K, Crystal of intercomponent compound 1, Small sample (50 mg) DSC, x2 = 0.81	25.01 J/K/mol
413.73 K, Crystal of intercomponent compound 2, Small sample (50 mg) DSC, x2 = 0.804	25.46 J/K/mol and 25.49 J/K/mol
413.94 K, Crystal of intercomponent compound 1, Small sample (50 mg) DSC, x2 = 0.81	24.68 J/K/mol and 25.12 J/K/mol
420 K, Crystal of intercomponent compound 1, relaxation calorimetry + DSC, x2 = 0.81	24.96 J/K/mol
420 K, Crystal of intercomponent compound 2, relaxation calorimetry + DSC, x2 = 0.804	25.37 J/K/mol
423.64 K, Crystal of intercomponent compound 2, Small sample (50 mg) DSC, x2 = 0.804	25.57 J/K/mol and 25.65 J/K/mol
423.85 K, Crystal of intercomponent compound 1, Small sample (50 mg) DSC, x2 = 0.81	24.68 J/K/mol
423.86 K, Crystal of intercomponent compound 1, Small sample (50 mg) DSC, x2 = 0.81	25.12 J/K/mol
433.56 K, Crystal of intercomponent compound 2, Small sample (50 mg) DSC, x2 = 0.804	25.68 J/K/mol and 25.75 J/K/mol
433.76 K, Crystal of intercomponent compound 1, Small sample (50 mg) DSC, x2 = 0.81	25.01 J/K/mol
433.77 K, Crystal of intercomponent compound 1, Small sample (50 mg) DSC, x2 = 0.81	25.23 J/K/mol
440 K, Crystal of intercomponent compound 1, relaxation calorimetry + DSC, x2 = 0.81	25.28 J/K/mol
440 K, Crystal of intercomponent compound 2, relaxation calorimetry + DSC, x2 = 0.804	25.8 J/K/mol
443.48 K, Crystal of intercomponent compound 2, Small sample (50 mg) DSC, x2 = 0.804	25.83 J/K/mol and 25.95 J/K/mol
443.67 K, Crystal of intercomponent compound 1, Small sample (50 mg) DSC, x2 = 0.81	25.01 J/K/mol
443.69 K, Crystal of intercomponent compound 1, Small sample (50 mg) DSC, x2 = 0.81	25.56 J/K/mol
453.39 K, Crystal of intercomponent compound 2, Small sample (50 mg) DSC, x2 = 0.804	25.96 J/K/mol and 26.21 J/K/mol
453.59 K, Crystal of intercomponent compound 1, Small sample (50 mg) DSC, x2 = 0.81	25.01 J/K/mol
